Data on 11 compounds can be found in PubChem BioAssay (NCI).

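Interpolation was linear, between the two tested concentrations surrounding the appropriate level; five concentrations were tested over 48 hours in 96-well plates. The concentration for 50% growth inhibition is given as GI50. TGI is the concentration that stops growth completely.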

Test systems include HCC-2998 colon; SN12C renal; IGROV1 ovarian; M14 melanoma; COLO 205 colon; U251 CNS; HL-60(TB) leukemia; UACC-62 melanoma; HOP-62 NSCLC; SK-OV-3 ovarian.
Common to all, as to experiment: inhibition of tumour cell growth, NCI panel, 48 h

As for `CC(C)(C)CC(C)(C)c1cc2c(O)c(c1)Cc1cc(C(C)(C)CC(C)(C)C)cc(c1O)Cc1cc(C(C)(C)CC(C)(C)C)cc(c1O)Cc1cc(C(C)(C)CC(C)(C)C)cc(c1O)Cc1cc(C(C)(C)CC(C)(C)C)cc(c1O)Cc1cc(C(C)(C)CC(C)(C)C)cc(c1O)C2`, the TGI in the experiment with HCC-2998 colon, with SN12C renal, in the experiment with IGROV1 ovarian, with M14 melanoma, in the experiment with COLO 205 colon and in the experiment on U251 CNS was > 100 µM each time. Moreover, the TGI with HL-60(TB) leukemia, in the experiment with UACC-62 melanoma and in the experiment with HOP-62 NSCLC was > 100 µM each time.

`COc1cccc2c1-c1c(c3ccc([N+](=O)[O-])cc3c(=O)n1CCCCl)C2=O`: the GI50 was 15.8 µM with SN12C renal; 21.1 µM in the experiment on SK-OV-3 ovarian; 8.57 µM in the experiment with M14 melanoma; > 50 µM in the experiment on COLO 205 colon; 2420 nM in the experiment on UACC-62 melanoma; 5.46 µM in the experiment with HOP-62 NSCLC. In addition, the TGI is > 50 µM in the experiment with SN12C renal; > 50 µM in the experiment with SK-OV-3 ovarian; > 50 µM with M14 melanoma; > 50 µM with COLO 205 colon; 18.8 µM in the experiment on UACC-62 melanoma; 15.9 µM with HOP-62 NSCLC.

Take `O=C(c1ccccc1)c1ccc(OCCOc2ccc(Nc3ccccc3)cc2)cc1`: the TGI with HCC-2998 colon is > 100 µM; in the experiment on SN12C renal it was > 100 µM; with IGROV1 ovarian it was > 100 µM; in the experiment with SK-OV-3 ovarian, 64.4 µM; with M14 melanoma, > 100 µM; with COLO 205 colon, > 100 µM. Moreover, the TGI in the experiment with U251 CNS is 57.1 µM; with UACC-62 melanoma, > 100 µM; in the experiment with HOP-62 NSCLC it was 81.2 µM.

As for `Cn1c(O)c(C(/C=C/c2ccccc2)=NCCN=C(/C=C/c2ccccc2)c2c(O)n(C)c(=O)n(C)c2=O)c(=O)n(C)c1=O`, the GI50 with SN12C renal was 16.5 µM; with IGROV1 ovarian it was 20.7 µM; in the experiment on SK-OV-3 ovarian it was 19.9 µM; in the experiment with M14 melanoma it was 15 µM; in the experiment on COLO 205 colon, 17.3 µM; in the experiment with U251 CNS, 18.3 µM. The figures for the GI50 in the experiment on HL-60(TB) leukemia, in the experiment on UACC-62 melanoma and in the experiment with HOP-62 NSCLC were 9.14 µM, 19200 nM and 23.4 µM, respectively. The TGI with SN12C renal, in the experiment on IGROV1 ovarian, in the experiment on SK-OV-3 ovarian, in the experiment on M14 melanoma, in the experiment on COLO 205 colon and in the experiment with U251 CNS was > 50 µM each time. In addition, the TGI is 27.4 µM with HL-60(TB) leukemia, > 50 µM in the experiment with UACC-62 melanoma and > 50 µM with HOP-62 NSCLC.

Turning to `O=S(=O)(O)c1ccc(-c2nnc(-c3ccccn3)nc2-c2ccc(S(=O)(=O)O)o2)o1`, the TGI in the experiment on SN12C renal, with IGROV1 ovarian, with SK-OV-3 ovarian, in the experiment on M14 melanoma, with COLO 205 colon and in the experiment with U251 CNS was > 100 µM each time. Further, the TGI in the experiment on HL-60(TB) leukemia, with UACC-62 melanoma and in the experiment with HOP-62 NSCLC was > 100 µM each time.

On to `O=C(CN1CCN(c2ccc(Cl)cc2)CC1)N1CCN(c2nnc(-c3ccc(Cl)cc3)c(-c3ccc(Cl)cc3)n2)CC1`, for which the GI50 in the experiment on HCC-2998 colon is > 100 µM; in the experiment with SN12C renal it was 37 µM; in the experiment with IGROV1 ovarian, 35.1 µM; with SK-OV-3 ovarian, 33.9 µM; with M14 melanoma, 28.2 µM; in the experiment with COLO 205 colon, 55.3 µM. For the same compound, the GI50 is 41.7 µM in the experiment with U251 CNS, > 100 µM in the experiment on HL-60(TB) leukemia and 40.9 µM in the experiment with HOP-62 NSCLC. For the same compound, the TGI in the experiment with HCC-2998 colon, in the experiment on SN12C renal, in the experiment with IGROV1 ovarian, in the experiment on SK-OV-3 ovarian, in the experiment on M14 melanoma and in the experiment with COLO 205 colon was > 100 µM in each case. The TGI in the experiment with U251 CNS, with HL-60(TB) leukemia and in the experiment with HOP-62 NSCLC was > 100 µM in each case.

On to `COc1c(NC(C)=O)cc(C)cc1NC(C)=O`, for which the TGI in the experiment on HCC-2998 colon, in the experiment on SN12C renal, in the experiment with SK-OV-3 ovarian, in the experiment with M14 melanoma, with COLO 205 colon and in the experiment with U251 CNS was > 100 µM throughout. Moreover, the TGI with HL-60(TB) leukemia, with UACC-62 melanoma and with HOP-62 NSCLC was > 100 µM each time.

On to `C/C(=N\N=C(\[Se])N1CCN(c2ccccn2)CC1)c1ccccn1`, for which the TGI in the experiment with HCC-2998 colon is 23.3 µM; with SN12C renal, 21.3 µM; in the experiment with SK-OV-3 ovarian, 9.82 µM; in the experiment with M14 melanoma, 16.7 µM; in the experiment on COLO 205 colon, 0.0358 µM; with U251 CNS, 16.7 µM. Further, the GI50 with SN12C renal is 0.375 µM; with M14 melanoma, 0.0254 µM; in the experiment with COLO 205 colon, 0.00449 µM; in the experiment on HL-60(TB) leukemia it was 0.00236 µM.

As to `COc1ccc(C2=NN(C(=O)c3cc(OC)c(OC)c(OC)c3)C(c3ccc(Cl)cc3)C2)cc1OC` (centres undefined), the GI50 in the experiment with HCC-2998 colon was 7.61 µM; in the experiment with SN12C renal, 4.89 µM; in the experiment on IGROV1 ovarian, 2.11 µM; in the experiment on SK-OV-3 ovarian, 2.89 µM; with M14 melanoma, 4.66 µM; in the experiment on COLO 205 colon, 2.44 µM. Also, the GI50 is 3.67 µM with U251 CNS, 549 nM with UACC-62 melanoma and 5.24 µM in the experiment with HOP-62 NSCLC. Besides, the TGI was > 100 µM in the experiment with HCC-2998 colon; 56 µM with SN12C renal; 40 µM with IGROV1 ovarian; 27.4 µM in the experiment with SK-OV-3 ovarian; > 100 µM with M14 melanoma; > 100 µM in the experiment with COLO 205 colon. In addition, the TGI in the experiment with U251 CNS turned out to be 42.2 µM; in the experiment on UACC-62 melanoma, 15.5 µM; in the experiment on HOP-62 NSCLC it was 32 µM.

On to `COc1ccc(C(=O)C(C(=O)C(=O)Nc2ccc(Cl)c(Cl)c2)c2ccc(OC)cc2)cc1` (centres undefined), for which the TGI in the experiment with HCC-2998 colon, in the experiment with SN12C renal, in the experiment with IGROV1 ovarian, in the experiment with M14 melanoma, in the experiment on U251 CNS and in the experiment with HL-60(TB) leukemia was > 100 µM throughout. For the same compound, the TGI with UACC-62 melanoma and with HOP-62 NSCLC was > 100 µM each time.

For `O=c1c2ccccc2n2n1CC(O)C2` (centres undefined), the TGI in the experiment with HCC-2998 colon, in the experiment with SN12C renal, in the experiment on IGROV1 ovarian, in the experiment on SK-OV-3 ovarian, in the experiment with M14 melanoma and in the experiment on COLO 205 colon was > 100 µM in each case. Also, the TGI in the experiment on U251 CNS, in the experiment with HL-60(TB) leukemia and with HOP-62 NSCLC was > 100 µM in each case.
